This is an account of results in paper PMC4335978, “Regulation of nitrite resistance of the cytochrome cbb3 oxidase by cytochrome c ScyA in Shewanella oneidensis” (MicrobiologyOpen, 2014).

Experiment [1] addresses T1, bd oxidase (cytochrome bd) (Shewanella oneidensis, UniProt Q8EC58).
T1 construct: gene cydA; native cydABX complex in membrane preparations of S. oneidensis Δcco strain (cbb3 oxidase absent), not purified, no tag; with Cytochrome bd ubiquinol oxidase subunit II CydB; Cytochrome bd oxidase small subunit CydX
T1 sequence (Q8EC58 1-518): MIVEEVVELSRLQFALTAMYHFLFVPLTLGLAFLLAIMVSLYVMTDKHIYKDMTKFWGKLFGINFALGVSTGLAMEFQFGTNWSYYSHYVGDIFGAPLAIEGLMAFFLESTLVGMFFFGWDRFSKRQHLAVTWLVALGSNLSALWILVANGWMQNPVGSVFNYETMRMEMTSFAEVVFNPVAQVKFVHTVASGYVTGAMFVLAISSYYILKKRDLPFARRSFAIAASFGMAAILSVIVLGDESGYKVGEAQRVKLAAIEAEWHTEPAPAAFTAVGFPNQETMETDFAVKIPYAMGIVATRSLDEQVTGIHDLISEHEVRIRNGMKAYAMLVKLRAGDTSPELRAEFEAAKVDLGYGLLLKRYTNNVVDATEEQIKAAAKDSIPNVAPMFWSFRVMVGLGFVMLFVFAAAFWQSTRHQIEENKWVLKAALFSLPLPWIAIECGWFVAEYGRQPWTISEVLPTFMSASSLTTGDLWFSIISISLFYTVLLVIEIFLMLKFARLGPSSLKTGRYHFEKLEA
T1 sequence (Q8EC59 1-379 partner): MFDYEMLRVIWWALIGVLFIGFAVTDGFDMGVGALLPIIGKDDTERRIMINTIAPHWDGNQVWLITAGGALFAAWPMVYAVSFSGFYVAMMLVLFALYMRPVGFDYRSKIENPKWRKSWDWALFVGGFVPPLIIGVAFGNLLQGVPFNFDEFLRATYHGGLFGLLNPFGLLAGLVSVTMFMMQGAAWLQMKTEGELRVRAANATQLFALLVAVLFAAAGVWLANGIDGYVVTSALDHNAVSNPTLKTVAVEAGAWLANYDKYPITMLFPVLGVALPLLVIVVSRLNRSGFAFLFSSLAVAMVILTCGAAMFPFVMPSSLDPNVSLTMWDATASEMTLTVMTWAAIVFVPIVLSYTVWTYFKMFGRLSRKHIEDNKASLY
T1 sequence (Q8EC60 1-38 partner): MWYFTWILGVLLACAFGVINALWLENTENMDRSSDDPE
In words: oxygen consumption (O2 electrode), membranes of Δcco strain. The format is biochemical. As to conditions: ~70 μmol/L O2; ubiquinol-1 as electron donor; no added ScyA.

The target in experiment [2] is T2, cbb3-HCO (cytochrome cbb3 oxidase) (Shewanella oneidensis, UniProt Q8EEL5).
T2 construct: gene ccoN; native ccoNOQP complex in membrane preparations of S. oneidensis Δcyd strain (bd oxidase absent), not purified, no tag; with Cbb3-type cytochrome c oxidase subunit II CcoO; Cbb3-type cytochrome c oxidase subunit III CcoP; Cbb3-type cytochrome c oxidase subunit IV CcoQ
T2 sequence (Q8EEL5 1-478): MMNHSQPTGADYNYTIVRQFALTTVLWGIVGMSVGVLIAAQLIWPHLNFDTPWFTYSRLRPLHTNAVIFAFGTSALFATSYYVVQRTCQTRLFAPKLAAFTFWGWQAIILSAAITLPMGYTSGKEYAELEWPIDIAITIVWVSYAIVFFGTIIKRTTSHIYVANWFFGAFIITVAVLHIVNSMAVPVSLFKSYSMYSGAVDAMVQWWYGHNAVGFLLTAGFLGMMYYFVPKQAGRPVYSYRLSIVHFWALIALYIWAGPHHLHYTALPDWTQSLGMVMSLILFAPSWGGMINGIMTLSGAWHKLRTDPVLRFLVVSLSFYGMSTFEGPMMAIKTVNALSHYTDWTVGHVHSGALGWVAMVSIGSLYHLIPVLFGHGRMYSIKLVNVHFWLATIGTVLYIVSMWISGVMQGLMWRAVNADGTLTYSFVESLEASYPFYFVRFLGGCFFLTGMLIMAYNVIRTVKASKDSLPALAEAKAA
T2 sequence (Q8EEL6 1-208 partner): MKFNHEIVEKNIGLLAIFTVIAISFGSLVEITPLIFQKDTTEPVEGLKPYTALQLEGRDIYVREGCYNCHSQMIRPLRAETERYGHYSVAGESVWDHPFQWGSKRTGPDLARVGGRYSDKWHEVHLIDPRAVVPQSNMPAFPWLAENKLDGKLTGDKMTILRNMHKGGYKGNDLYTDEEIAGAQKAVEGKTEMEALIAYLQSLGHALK
T2 sequence (Q8EEL8 1-322 partner): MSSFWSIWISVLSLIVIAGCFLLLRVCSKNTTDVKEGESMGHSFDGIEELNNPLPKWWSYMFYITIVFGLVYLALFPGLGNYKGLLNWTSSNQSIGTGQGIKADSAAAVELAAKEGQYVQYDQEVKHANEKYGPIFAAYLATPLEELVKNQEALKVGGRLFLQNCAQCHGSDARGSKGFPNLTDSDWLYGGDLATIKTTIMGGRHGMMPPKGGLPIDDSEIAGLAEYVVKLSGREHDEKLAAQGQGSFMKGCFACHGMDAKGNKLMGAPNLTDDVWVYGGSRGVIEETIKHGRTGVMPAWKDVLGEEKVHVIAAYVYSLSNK
T2 sequence (Q8EEL7 1-58 partner): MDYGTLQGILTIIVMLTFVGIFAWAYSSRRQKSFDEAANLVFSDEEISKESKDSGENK
In words: oxygen consumption (O2 electrode), membranes of Δcyd strain. It counts as biochemical. The following applies: ~70 μmol/L O2; ascorbate + TMPD as electron donor; no added ScyA.

Molecules are shown by their SMILES.

With `O=NO` [nitrite], the figures for the IC50 in experiment [1] and in experiment [2] were roughly 180 nM and roughly 50 nM, respectively.
